The text below walks through data of publication PMC7539012, “Hyperphosphorylated tau aggregation and cytotoxicity modulators screen identified prescription drugs linked to Alzheimer's disease and cognitive functions” (Scientific Reports, 2020).

For the experiment, the system named is T1, 1N4R p-tau.
T1 construct: made in house; host or cells: E. coli (PIMAX system)
Nature of the experiment: p-tau aggregation modulator screen of 1280-compound library (ThS fluorescence net change over 16 h).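 On ThS net change: 30 µM compound with 6 µM p-tau over 16 h.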 It is filed as biochemical. More on the design: key to PTAI>3SD: *: PTAI>3SD.

[1] abbreviates: p-tau aggregation modulator screen of the compound library, ThS fluorescence net change.
[2] abbreviates: library screen, ThS fluorescence net change over 16 h with p-tau.
Setting [3] is: p-tau aggregation modulator screen of 1280-compound library, […].
The mark [4] stands for this setting: 1280-compound library screen, ThS fluorescence net change over 16 h.
Where [5] appears, read: p-tau aggregation modulator screen of 1280-compound library, ThS fluorescence net change.
Setting [6] is: 1280-compound library screen, […].

Counter-ions that a name gives are not always drawn. Like-named read-outs stand apart in the source and are kept apart here. Where a SMILES comes first, the peptide text is derived from it. [ ]: non-standard residue; d: D form. pGlu = O=C1CC[C@@H](C(=O)O)N1; Thz = O=C(O)[C@@H]1CSCN1

As for `N#CC(c1ccc(Cl)cc1)c1c(Cl)cc(-n2ncc(=O)[nH]c2=O)cc1Cl` (stereo not drawn) [Diclazuril], under setting [1], the ThS net change worked out at 507.
Compound `Cc1scc2c1N(C(=O)CN1CCN(C)CC1)c1ccccc1NC2=O` [Telenzepine dihydrochloride] had a ThS net change under setting [2] of 326.
As for `COc1cc(-c2ccc(/N=N/c3ccc4c(S(=O)(=O)[O-])cc(S(=O)(=O)[O-])c(N)c4c3O)c(OC)c2)ccc1/N=N/c1ccc2c(S(=O)(=O)[O-])cc(S(=O)(=O)[O-])c(N)c2c1O.[Na+].[Na+].[Na+].[Na+]` [Chicago sky blue 6B], under “flag: p-tau aggregation inhibitor, ThS net change more than 3 SD from mean”, the “PTAI>3SD” value is reported as “*”. Under setting [2], this compound came in with a ThS net change of 11.
For `O=P(O)(O)C(Cl)(Cl)P(=O)(O)O` [Clodronate], under setting [3], the ThS net change is 370.
Under setting [1], `Clc1ccc2c(c1)C(N1CCNCC1)=Nc1ccccc1O2` [Amoxapine] displayed a ThS net change of 416.
Under setting [4], `COC(=O)N/N=C/c1c[n+]([O-])c2ccccc2[n+]1[O-]` [Carbadox] gave a ThS net change of 380.
Turning to `O=C(Oc1cccc2cccnc12)c1ccccc1` [Benzoxiquine], the ThS net change stood at 287.
Compound `CN1C(C(=O)Nc2ccccn2)=C(O)c2sccc2S1(=O)=O` [Tenoxicam] displayed a ThS net change under setting [1] of 416.
Still for that read-out and setting: with `CCCc1nc2c(C)cc(-c3nc4ccccc4n3C)cc2n1Cc1ccc(-c2ccccc2C(=O)O)cc1` [Telmisartan] the figure was 454.
The compound `CCC(=O)O[C@@](Cc1ccccc1)(c1ccccc1)[C@@H](C)CN(C)C` [Levopropoxyphene napsylate] gave a ThS net change of 434.
The same measure, in the same setting: with `CC(=O)O[C@H]1CC[C@@]2(C)C(=CC[C@@H]3[C@@H]2CC[C@]2(C)C(=O)CC[C@@H]32)C1` [Dehydroisoandosterone 3-acetate] the figure was 423.
Take `Clc1ccc(C(Cn2ccnc2)OCc2c(Cl)cccc2Cl)c(Cl)c1` (stereo not drawn) [Isoconazole]: the ThS net change under setting [2] turned out to be 296.
As for `CCCCC1=NC2(CCCC2)C(=O)N1Cc1ccc(-c2ccccc2-c2nnn[nH]2)cc1` [Irbesartan], under setting [1], the ThS net change stood at 454.
`CN(C(=O)C(Cl)Cl)c1ccc(OC(=O)c2ccco2)cc1` [Diloxanide furoate] had a ThS net change under setting [5] of 371.
On the same count and under the same terms, the same measure for `Cl.Nc1nc2ccc(OC(F)(F)F)cc2s1` [Riluzole hydrochloride]: 353.
Under setting [3], `Br.COc1ccc2c(c1)[C@]13CCCC[C@@H]1[C@H](C2)N(C)CC3.O` gave a ThS net change of 372.
Under setting [4], `CN(N=O)C(=O)N[C@H]1C(O)O[C@H](CO)[C@@H](O)[C@@H]1O` (mixture of isomers) [Streptozotocin] returned a ThS net change of 384.
In the case of `CNC(=O)Oc1ccc2c(c1)[C@]1(C)CCN(C)[C@@H]1N2C` [Eserine hemisulfate salt], the ThS net change under setting [6] came out at 395.
Consider `C[N+]1(C)CCC(OC(=O)C(O)(c2ccccc2)C2CCCC2)C1` (stereo not drawn) [Glycopyrrolate], for which the ThS net change under setting [4] stood at 401.
As for `CC/C(=C(\c1ccccc1)c1ccc(OCCN(C)C)cc1)c1ccccc1` [Tamoxifen citrate], the ThS net change under setting [3] worked out at 336.
Regarding `Clc1ccc2nsnc2c1NC1=NCCN1` [Tizanidine HCl], under setting [4], the ThS net change is 386.
Under setting [6], `CNCC[C@@H](Oc1ccccc1C)c1ccccc1` [Tomoxetine hydrochloride] had a ThS net change of 389.
`CC(=O)O[C@]1(C(C)=O)CC[C@H]2[C@@H]3C=C(Cl)C4=CC(=O)[C@@H]5C[C@@H]5[C@]4(C)[C@H]3CC[C@@]21C` [Cyproterone acetate] gave a ThS net change under setting [1] of 432.
For `Cc1nnc(SCC2=C(C(=O)O)N3C(=O)[C@@H](NC(=O)Cn4cnnn4)[C@H]3SC2)s1` [Cefazolin sodium salt], under setting [4], the ThS net change is given as 381.
Take `CCN(CC)CCNC(=O)c1cc(Br)c(N)cc1OC` [Bromopride]: the ThS net change under setting [5] stood at 373.
Turning to `C[C@@H](O)[C@H]1C(=O)N2C(C(=O)O)=C(SCCN=CN)C[C@H]12` [Imipenem], the ThS net change under setting [4] is on record as 385.
Still for that read-out and setting: with `CC(C)NCC(O)COc1ccc(COCCOC(C)C)cc1` (stereo not drawn) [Bisoprolol fumarate] the figure was 409.
In turn, `CCCCC(=O)O[C@H]1CC[C@H]2[C@@H]3CCc4cc(O)ccc4[C@H]3CC[C@]12C` [Estradiol Valerate] returned a ThS net change under setting [1] of 417.
As to `C[C@H](N)[C@H](O)c1cccc(O)c1` [Metaraminol bitartrate], the ThS net change under setting [2] amounted to 321.
Turning to `NC[C@H]1O[C@H](O[C@H]2[C@H](O)[C@@H](O[C@H]3O[C@H](CO)[C@@H](O)[C@H](N)[C@H]3O)[C@H](N)C[C@@H]2N)[C@H](N)C[C@@H]1O` [Tobramycin], the ThS net change under setting [5] is on record as 360.
Under setting [6], `NC(=O)C(c1ccccc1)(c1ccccc1)[C@@H]1CCN(CCc2ccc3c(c2)CCO3)C1` [Darifenacin hydrobromide] gave a ThS net change of 384.
In turn, `Cc1ccnc2c1NC(=O)c1cccnc1N2C1CC1` [Nevirapine] returned a ThS net change under setting [1] of 427.
Still for that read-out and setting: with `COC(=O)[C@@H]1[C@H]2C[C@H]3c4[nH]c5ccccc5c4CCN3C[C@@H]2CC[C@@H]1O` [Yohimbine hydrochloride] the figure was 418; with `CN(C)CC/C=C1/c2ccccc2COc2ccc(CC(=O)O)cc21` [Olopatadine hydrochloride], 439; with `CCOc1ccc(Cc2nccc3cc(OCC)c(OCC)cc23)cc1OCC` [Ethaverine hydrochloride], 439.
Compound `Cc1ccc(C)c(OCCCC(C)(C)C(=O)O)c1` [Gemfibrozil] showed a ThS net change under setting [5] of 353.
Regarding `CC(=O)N(CC(O)CN(C(C)=O)c1c(I)c(C(=O)NCC(O)CO)c(I)c(C(=O)NCC(O)CO)c1I)c1c(I)c(C(=O)NCC(O)CO)c(I)c(C(=O)NCC(O)CO)c1I` (stereo not drawn) [Iodixanol], the ThS net change under setting [3] is given as 338.
As for `CN1CCN(CCCN2c3ccccc3Sc3ccc(C(F)(F)F)cc32)CC1` [Trifluoperazine dihydrochloride], the ThS net change under setting [2] was found to be 299.
For the compound `N=C(N)NC(=O)Cc1c(Cl)cccc1Cl` [Guanfacine hydrochloride], the ThS net change under setting [1] is recorded as 417.
For `O=C1CC[C@@H](C(=O)N2CSC[C@H]2C(=O)O)N1` [Pidotimod] ([pGlu]-[Thz]-OH), under setting [1], the ThS net change was 441.
The compound `CCn1cc(C(=O)O)c(=O)c2cnc(N3CCCC3)nc21` [Piromidic acid] had a ThS net change under setting [4] of 394.
In the case of `C[C@@]12N[C@@H](Cc3ccccc31)c1ccccc12.O=C(O)/C=C\C(=O)O` [(-)-MK 801 hydrogen maleate], the ThS net change under setting [3] was found to be 354.
In turn, `Clc1ccc(C(Cn2ccnc2)OCc2ccsc2Cl)c(Cl)c1` (stereo not drawn) [Tioconazole] had a ThS net change under setting [2] of 309.
The same measure, in the same setting: the same measure for `CC(CCc1ccc(O)cc1)NCCc1ccc(O)c(O)c1` (stereo not drawn) [Dobutamine hydrochloride]: 257.
As to `Cc1cccc(CN2CCN(C(c3ccccc3)c3ccc(Cl)cc3)CC2)c1.Cl.Cl` (stereo not drawn) [Meclozine dihydrochloride], the ThS net change under setting [1] amounted to 430.
In turn, `CC(C)(C)NC[C@H](O)COc1ccccc1C1CCCC1` [Penbutolol sulfate] registered a ThS net change under setting [1] of 457.
In the case of `COC(=O)C1=C(C#N)NC(C)=C(C(=O)OC(C)C)C1c1cccc([N+](=O)[O-])c1` (stereo not drawn) [Nilvadipine], the ThS net change under setting [2] was 266.
As to `CCN[C@H]1C[C@H](C)S(=O)(=O)c2sc(S(N)(=O)=O)cc21` [Dorzolamide hydrochloride], under setting [1], the ThS net change came to 463.
With `N=C(N)N1CCc2ccccc2C1` [Debrisoquin sulfate], the ThS net change under setting [5] is 360.
Take `CC(C)(C)c1ccc(C(O)CCCN2CCC(C(O)(c3ccccc3)c3ccccc3)CC2)cc1` (stereo not drawn) [Terfenadine]: the ThS net change under setting [2] came to 251.
For the compound `C[C@]12C[C@H]3S[C@H]3C[C@@H]1CC[C@@H]1[C@@H]2CC[C@]2(C)[C@@H](O)CC[C@@H]12` [Epitiostanol], the ThS net change was determined as 421.
In the case of `O=C(C1CCCCC1)N1CC(=O)N2CCc3ccccc3C2C1` (stereo not drawn) [Praziquantel], under setting [1], the ThS net change is given as 418.
In the case of `CN(C)CCOC(=O)C(c1ccccc1)C1(O)CCCC1` (stereo not drawn) [Cyclopentolate hydrochloride], the ThS net change under setting [4] is given as 412.
The compound `NCCc1cc[nH]n1` [Betazole hydrochloride] gave a ThS net change under setting [5] of 333.
`CNNCc1ccc(C(=O)NC(C)C)cc1` [Procarbazine hydrochloride] yielded a ThS net change of 457.
`CN(C)CCOC(=O)COc1ccc(Cl)cc1.Cl` [Meclofenoxate hydrochloride] returned a ThS net change under setting [3] of 359.
On to `CC12CC3CC(C)(C1)CC(N)(C3)C2` [Memantine Hydrochloride], for which the ThS net change under setting [4] was found to be 405.
Under setting [1], `CC(=O)OCC(=O)[C@@]12OC3(CCCC3)O[C@@H]1C[C@H]1[C@@H]3CCC4=CC(=O)C=C[C@]4(C)[C@@]3(F)[C@@H](O)C[C@@]12C` [Amcinonide] registered a ThS net change of 477.
Regarding `c1ccc(CNc2ncnc3nc[nH]c23)cc1` [Aminopurine, 6-benzyl], the ThS net change under setting [5] is reported as 348.
In turn, `Cc1cc(O)c(C(=O)N[C@@H](C(=O)N[C@@H]2C(=O)N3C(C(=O)O)=C(CSc4nnnn4C)CS[C@H]23)c2ccc(O)cc2)cn1` [Cefpiramide] showed a ThS net change under setting [4] of 407.
In turn, `C[C@]12CC[C@@H]3c4ccc(O)cc4C[C@@H](CCCCCCCCC[S+]([O-])CCCC(F)(F)C(F)(F)F)[C@H]3[C@@H]1CC[C@@H]2O` (stereo partly drawn) [Fulvestrant] registered a ThS net change under setting [1] of 442.
Same read-out and setting: with `C[C@H](CCC(=O)O)[C@H]1CC[C@H]2[C@@H]3[C@@H](O)C[C@@H]4C[C@H](O)CC[C@]4(C)[C@H]3CC[C@]12C` [Urosiol] the figure was 426.
On to `CC(C(=O)O)c1cccc(C(=O)c2ccccc2)c1` (stereo not drawn) [Ketoprofen], for which the ThS net change under setting [5] is 376.
The compound `CCCCCC[C@H]1C(=O)O[C@H](C)[C@H](NC(=O)c2cccc(NC=O)c2O)C(=O)O[C@@H](C)[C@@H]1OC(=O)CC(C)C` [Antimycin A] gave a ThS net change under setting [2] of 211.
Compound `CO[C@@H]1[C@@H](OC(N)=O)[C@@H](O)[C@H](Oc2ccc3c(O)c(NC(=O)c4ccc([O-])c(CC=C(C)C)c4)c(=O)oc3c2C)OC1(C)C.[Na+]` [Novobiocin sodium salt] showed a ThS net change under setting [5] of 369.
